According to publication PMC6358721, “Engineering of B800 bacteriochlorophyll binding site specificity in the Rhodobacter sphaeroides LH2 antenna” (Biochimica et Biophysica Acta. Bioenergetics, 2019):

Molecular target: T1, LH2 (light-harvesting 2 complex), B800 site; B850 LH2 when B800-depleted (Cereibacter sphaeroides, UniProt Q3J144+Q3J145)
T1 construct: gene pucA; native complex purified from Rba. sphaeroides membranes (LDAO, then beta-DDM); B800 BChl a removed with LDS for reconstitution; B850 BChl a and carotenoid retained; ring of nine alpha-beta pairs; R30L/R30F genomic at the puc1BA locus, R30E/R30M from pRK415 vectors, in delta-puc1BA delta-puc2BA delta-pufBALMX
T1 sequence (Q3J144 whole entry): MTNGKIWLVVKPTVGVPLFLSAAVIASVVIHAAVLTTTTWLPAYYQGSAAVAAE
T1 sequence (Q3J145 2-51): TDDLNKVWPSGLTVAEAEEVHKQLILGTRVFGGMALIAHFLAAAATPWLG
Test: reconstitution of B800-depleted LH2, absorption spectra
Type: binding
Conditions: 20 mM Tris pH 8, 0.5% beta-DDM, 12 uM pigment, room temperature

## C=Cc1c(C=O)c2[n]3c1C=C1N=C(C=c4c(C)c5c([n]4[Mg]3)=C(C3=NC(=C2)[C@@H](C)[C@@H]3CCC(=O)OC/C=C(\C)CCC[C@H](C)CCC[C@H](C)CCCC(C)C)[C@@H](C(=O)OC)C5=O)C(CC)=C1C [Chl f]
  reconstitution of B800-depleted LH2, absorption spectra: we generated additional novel reconstitutions using Chl f
